Structures are written as SMILES. Read-outs that look alike come from different tables or passages of the source.

For this test, the target named is xanthine oxidase (Homo sapiens (Human), UniProt P47989). The test can be described thus: Fluorescence-based xanthine oxidase activity assay. The class given is biochemical. To be noted: for inhibition of xanthine oxidase compared to allopurinol: statement in words.
The mark [1] stands for this setting: read-out: Xanthine Oxidase IC50.

Sequence of xanthine oxidase (P47989 whole entry, species assumed): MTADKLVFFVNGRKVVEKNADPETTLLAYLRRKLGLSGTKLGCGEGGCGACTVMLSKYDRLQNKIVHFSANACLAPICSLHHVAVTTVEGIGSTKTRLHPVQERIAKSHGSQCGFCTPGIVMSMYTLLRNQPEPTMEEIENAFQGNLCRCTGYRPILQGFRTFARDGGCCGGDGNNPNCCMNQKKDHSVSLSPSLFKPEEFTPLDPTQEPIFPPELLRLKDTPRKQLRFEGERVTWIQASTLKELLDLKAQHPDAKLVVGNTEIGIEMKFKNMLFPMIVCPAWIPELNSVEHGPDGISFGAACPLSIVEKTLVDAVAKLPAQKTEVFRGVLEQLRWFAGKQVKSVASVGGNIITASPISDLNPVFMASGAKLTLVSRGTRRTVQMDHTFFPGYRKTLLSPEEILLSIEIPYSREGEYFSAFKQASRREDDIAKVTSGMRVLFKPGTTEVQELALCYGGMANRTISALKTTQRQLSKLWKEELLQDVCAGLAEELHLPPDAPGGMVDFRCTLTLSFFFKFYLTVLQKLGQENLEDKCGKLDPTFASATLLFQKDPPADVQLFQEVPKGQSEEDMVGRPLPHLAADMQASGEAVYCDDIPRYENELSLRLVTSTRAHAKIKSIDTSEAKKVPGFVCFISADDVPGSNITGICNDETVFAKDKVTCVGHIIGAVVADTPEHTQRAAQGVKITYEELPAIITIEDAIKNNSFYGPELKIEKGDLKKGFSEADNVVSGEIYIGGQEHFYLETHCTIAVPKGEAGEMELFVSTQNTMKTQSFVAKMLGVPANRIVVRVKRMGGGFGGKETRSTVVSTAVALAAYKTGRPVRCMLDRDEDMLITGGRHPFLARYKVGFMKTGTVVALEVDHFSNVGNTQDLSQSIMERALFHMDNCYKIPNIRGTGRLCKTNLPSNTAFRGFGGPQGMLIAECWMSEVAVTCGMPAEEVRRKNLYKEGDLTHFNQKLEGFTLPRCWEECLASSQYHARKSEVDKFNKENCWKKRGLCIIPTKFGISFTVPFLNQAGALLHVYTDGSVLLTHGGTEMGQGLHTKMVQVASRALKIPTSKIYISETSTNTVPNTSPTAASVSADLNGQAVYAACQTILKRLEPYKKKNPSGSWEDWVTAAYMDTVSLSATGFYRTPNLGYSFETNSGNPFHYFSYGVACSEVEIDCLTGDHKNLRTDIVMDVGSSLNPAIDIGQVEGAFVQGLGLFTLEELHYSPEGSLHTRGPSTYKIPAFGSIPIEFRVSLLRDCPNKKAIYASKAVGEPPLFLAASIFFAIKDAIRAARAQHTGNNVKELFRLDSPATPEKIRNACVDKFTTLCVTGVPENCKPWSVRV

`O=C1NS(=O)(=O)c2cc(NC(=O)c3c(O)[nH]c(=O)[nH]c3=O)ccc21` [Formula (IIIa), N-(1,1-dioxido-3-oxo-2,3-dihydrobenzo[d]isothiazol-6-yl)-2,4,6-trihydroxypyrimidine-5-carboxamide]: the IC50 – broadly, the concentration at which inhibition is half-maximal – under setting [1] was 4.5 µM.

Turning to `COc1nc(O)c(C(=O)Nc2ccc(-c3cnn[nH]3)cc2)c(=O)[nH]1` [Formula (IIb), N-(4-(3H-1,2,3-triazol-4-yl)phenyl)-4-hydroxy-2-methoxy-6-oxo-1,6-dihydropyrimidine-5-carboxamide], the “inhibition of xanthine oxidase compared to allopurinol” value (“inhibition … compared to allopurinol” for short) is “particularly potent inhibitors”. Also, the IC50 under setting [1] was 0.56 µM.

`CC(C)Sc1nc(O)c(C(=O)Nc2ccc(-c3c[nH]nn3)cc2)c(=O)[nH]1` [Formula (IId), N-(4-(1H-1,2,3-triazol-5-yl)phenyl)-4-hydroxy-2-(isopropylthio)-6-oxo-1,6-dihydropyrimidine-5-carboxamide]: the “inhibition … compared to allopurinol” value is “particularly potent inhibitors”.

With `O=C(Nc1ccc2[nH]c(=O)[nH]c2c1)c1c(O)[nH]c(=O)[nH]c1=O` [Formula (IVa), 6-hydroxy-2,4-dioxo-N-(2-oxo-2,3-dihydro-1H-benzo[d]imidazol-5-yl)-1,2,3,4-tetrahydropyrimidine-5-carboxamide], the IC50 under setting [1] was determined as 8.6 µM.

On to `O=C1Nc2ccc(NC(=O)c3c(O)[nH]c(=O)[nH]c3=O)cc2C1=O` [Formula (IVb), N-(2,3-dioxoindolin-5-yl)-6-hydroxy-2,4-dioxo-1,2,3,4-tetrahydropyrimidine-5-carboxamide], for which, under setting [1], the IC50 was above 300 µM.

Take `O=C(Nc1ccc2c(c1)C1(OCCO1)C(=O)N2)c1c(O)[nH]c(=O)[nH]c1=O` [Formula (IVc), 6-Hydroxy-2,4-dioxo-N-(2′-oxospiro[[1,3]dioxolane-2,3′-indolin]-5′-yl)-1,2,3,4-tetrahydropyrimidine-5-carboxamide]: the IC50 is above 300 µM.

On to `N=C(Nc1ccc(-c2cnn[nH]2)cc1)c1c(O)[nH]c(=O)[nH]c1=O` [Formula (Ia), N-(4-(1H-1,2,3-triazol-4-yl)phenyl)-6-hydroxy-2,4-dioxo-1,2,3,4-tetrahydropyrimidine-5-carboximidamide], for which the “inhibition … compared to allopurinol” value was “particularly potent inhibitors”. Under setting [1], the concentration for half-maximal inhibition (IC50) worked out at 0.25 µM.

`CS/C(=N\c1ccc(-c2cnn[nH]2)cc1)c1c(O)[nH]c(=O)[nH]c1=O` [Formula (Ib), 5-(((4-(1H-1,2,3-triazol-5-yl)phenyl)amino)(methylthio)methylene)pyrimidine-2,4,6(1H,3H,5H)-trione]: the midpoint of inhibition, the IC50, lay at 54.1 µM.

In turn, `O=c1[nH]c(O)c(/C(=N\O)Nc2ccc(-c3cnn[nH]3)cc2)c(=O)[nH]1` [Formula (Ic), (E)-N-(4-(1H-1,2,3-triazol-5-yl)phenyl)-N′-hydroxy-2,4,6-trioxohexahydro-pyrimidine-5-carboximidamide] displayed an IC50 of 1.2 µM.

For the compound `N/N=C(/Nc1ccc(-c2cnn[nH]2)cc1)c1c(O)[nH]c(=O)[nH]c1=O` [Formula (Id), (E)-N-(4-(1H-1,2,3-triazol-5-yl)phenyl)-2,4,6-trioxohexahydropyrimidine-5-carbohydrazonamide], the IC50 is above 300 µM.

On to `Cn1c(O)c(C(=O)Nc2ccc(-c3cnn[nH]3)cc2)c(=O)n(C)c1=O` [Formula (Ie), N-(4-(1H-1,2,3-triazol-4-yl)phenyl)-6-hydroxy-1,3-dimethyl-2,4-dioxo-1,2,3,4-tetrahydropyrimidine-5-carboxamide], for which the “inhibition … compared to allopurinol” value is “particularly potent inhibitors”. Besides, under setting [1], the IC50 is 1.6 µM.

For the compound `Cn1c(O)c(C(=N)Nc2ccc(-c3cnn[nH]3)cc2)c(=O)n(C)c1=O` [Formula (If), N-(4-(1H-1,2,3-triazol-5-yl)phenyl)-6-hydroxy-1,3-dimethyl-2,4-dioxo-1,2,3,4-tetrahydropyrimidine-5-carboximidamide], the “inhibition … compared to allopurinol” value was “particularly potent inhibitors”. Besides, the IC50 under setting [1] was 0.2 µM.

With `Cn1c(=O)[nH]c(O)c(C(=O)Nc2ccc(-c3cnn[nH]3)cc2)c1=O` [Formula (Ig), N-(4-(1H-1,2,3-triazol-4-yl)phenyl)-2,4-dihydroxy-1-methyl-6-oxo-1,6-dihydropyrimidine-5-carboxamide], the “inhibition … compared to allopurinol” value is “particularly potent inhibitors”. Further, the IC50 under setting [1] amounted to 0.55 µM.

As to `Cn1c(=O)[nH]c(O)c(C(=N)Nc2ccc(-c3cnn[nH]3)cc2)c1=O` [Formula (Ih)], half-maximal inhibition (IC50) was put at 0.74 µM and the “inhibition … compared to allopurinol” value is “particularly potent inhibitors”.

In the case of `O=C(NC1CCC(c2c[nH]nn2)CC1)c1c(O)[nH]c(=O)[nH]c1=O` (stereo not shown) [Formula (Ii)], under setting [1], the IC50 is above 296 µM.

Take `O=C(NC1CCC(O)(c2c[nH]nn2)CC1)c1c(O)[nH]c(=O)[nH]c1=O` (stereo not shown) [Formula (Ij), 6-hydroxy-N-(4-hydroxy-4-(1H-1,2,3-triazol-4-yl)cyclohexyl)-2,4-dioxo-1,2,3,4-tetrahydropyrimidine-5-carboxamide]: under setting [1], the IC50 was determined as 13.1 µM.

Turning to `Nc1[nH]c(=O)[nH]c(=O)c1C(=O)Nc1ccc(-c2c[nH]nn2)cc1` [Formula (Ik), N-(4-(1H-1,2,3-triazol-5-yl)phenyl)-6-amino-2,4-dioxo-1,2,3,4-tetrahydropyrimidine-5-carboxamide], the “inhibition … compared to allopurinol” value is reported as “particularly potent inhibitors”. Moreover, under setting [1], the IC50 was determined as 1.3 µM.

In the case of `O=C(Nc1c(O)[nH]c(=O)[nH]c1=O)c1ccc(-c2cnn[nH]2)cc1` [Formula (Il), 4-(1H-1,2,3-triazol-4-yl)-N-(2,4,6-trioxohexahydropyrimidin-5-yl)benzamide], the IC50 was found to be 6.3 µM.

On to `O=C(Nc1ccc(-c2[nH]nnc2-c2ccccc2)cc1)c1c(O)[nH]c(=S)[nH]c1=O` [Formula (Im), 6-hydroxy-4-oxo-N-(4-(4-phenyl-1H-1,2,3-triazol-5-yl)phenyl)-2-thioxo-1,2,3,4-tetrahydropyrimidine-5-carboxamide], for which the concentration for half-maximal inhibition (IC50) under setting [1] came to 18.2 µM.

Consider `O=C(Nc1ccc(-c2noc(C(F)(F)F)n2)cc1)c1c(O)[nH]c(=O)[nH]c1=O` [Formula (In), 6-hydroxy-2,4-dioxo-N-(4-(5-(trifluoromethyl)-1,2,4-oxadiazol-3-yl)phenyl)-1,2,3,4-tetrahydropyrimidine-5-carboxamide], for which the IC50 worked out at 292 µM.

As to `O=C(NO)c1ccc(NC(=O)c2c(O)[nH]c(=O)[nH]c2=O)cc1` [Formula (VIIIa), 6-hydroxy-N-(4-(hydroxycarbamoyl)phenyl)-2,4-dioxo-1,2,3,4-tetrahydropyrimidine-5-carboxamide], the half-maximal inhibitory concentration (IC50) under setting [1] was determined as 17.4 µM.

With `O=C(NO)c1cc(NC(=O)c2c(O)[nH]c(=O)[nH]c2=O)ccn1` [Formula (VIIIb), 6-hydroxy-N-(2-(hydroxycarbamoyl)pyridin-4-yl)-2,4-dioxo-1,2,3,4-tetrahydropyrimidine-5-carboxamide], the IC50 under setting [1] is 73.8 µM.

Regarding `O=c1nc2[nH]n(-c3ccc(-c4cnn[nH]4)cc3)c(=O)c2c(O)[nH]1` [Formula (VIIa), 2-(4-(1H-1,2,3-triazol-5-yl)phenyl)-4,6-dihydroxy-1H-pyrazolo[3,4-d]pyrimidin-3(2H)-one], under setting [1], the IC50 came out at 7 µM.

Consider `O=c1[nH]c(=O)c2c(Nc3ccc(-c4cnn[nH]4)cc3)n[nH]c2[nH]1` [Formula (VIb), 3-((4-(1H-1,2,3-triazol-5-yl)phenyl)amino)-1H-pyrazolo[3,4-d]pyrimidine-4,6(5H,7H)-dione], for which the “inhibition … compared to allopurinol” value is recorded as “particularly potent inhibitors”. In addition, the IC50 under setting [1] came out at 0.14 µM.

For `Cn1c(=O)c2c(Nc3ccc(-c4cnn[nH]4)cc3)n[nH]c2n(C)c1=O` [Formula (VIc), 3-((4-(1H-1,2,3-triazol-5-yl)phenyl)amino)-5,7-dimethyl-1H-pyrazolo[3,4-d]pyrimidine-4,6(5H,7H)-dione], the half-inhibitory concentration (IC50) under setting [1] is 2.5 µM.

Turning to `O=C(Nc1nc(O)c2cn[nH]c2n1)c1c(O)[nH]c(=O)[nH]c1=O` [Formula (Va), 6-hydroxy-N-(4-hydroxy-1H-pyrazolo[3,4-d]pyrimidin-6-yl)-2,4-dioxo-1,2,3,4-tetrahydropyrimidine-5-carboxamide], the IC50 under setting [1] was 36.1 µM.

These data come from patent publication US11168075B2, “Compounds and their use for reducing uric acid levels” (Acquist LLC, priority 2016, dated 2021).
